Laboratory results: patent publication US20130217765A1, “MULTIFUNCTIONAL NANOCONJUGATES AND USES THEREOF” (priority 2012, published 2013)

Experiments:
HeLa cells = assay: Duration of light exposure on HeLa cells treated with dye-modified TiO2 nanoparticles; type: cell-based; details: dark or 30 minutes of 750 W halogen visible light, fixed 24 hours post exposure
Procedure: In this Example, we tested the duration of light exposure on cells treated with dye-modified TiO2 nanoparticles. […] Cells were fixed in 4% formaldehyde 24 hours post exposure and 1 μm slices fluorescence confocal images are presented. […] The cellular response is heterogeneous.

plasmid DNA = assay: Plasmid DNA nicking by agarose gel electrophoresis after light exposure; type: biochemical; details: visible light, 150 W halogen bulb, 10 min
Procedure: The effect of visible light activated ARS-coated TiO2 nanoparticles was assessed by illuminating plasmid containing samples with a Fiber-Lite MI-150High Intensity Fiber Optic EKE 150 W21VHalogen Light Illuminator (Dolan-Jenner Industries, Boxborough, Mass., USA) for 10 min. […] All samples were then run on a 1.25% agarose gel at 60V for 4 h, stained with GelStar (Lonza, Mapleton, Ill., USA), and imaged on a Kodak Gel Logic 2200 Imaging System (Kodak, Rochester, N.Y., USA).
Considering these factors, we sought to determine the effect of visible light activated ARS-coated TiO2 nanoparticles on plasmid DNA integrity using a standard agarose gel electrophoresis technique developed by others. According to this assay, nicked (single-stranded DNA break), linear (double-stranded DNA break), and supercoiled (undamaged) plasmid DNA can be distinguished on an agarose gel by viewing differences in mobility (with the nicked plasmid DNA migrating at the slowest rate and supercoiled plasmid DNA migrating at the fastest rate) [13,15]. Samples were prepared that contained plasmid DNA and either (1) dH2O, (2) ARS, (3) TiO2 nanoparticles, or (4) ARS-coated TiO2 nanoparticles. […]

[1] = system: kanamycin-resistant E. coli; assay: Bacterial assay: incubation with samples, halogen light, plating on kanamycin LB agar; type: cell-based; details: incubated 10 minutes, 150 W halogen bulb 10 minutes, plated overnight at 37° C.
Procedure: When using dye-coated TiO2 nanoconjugates to inflict damage on bacteria, the dye alizarin red s was used (FIG. 24). The following protocol was used: a bacterial culture of kanamycin-resistant E. coli was grown overnight at 37° C. at 250 rpm and then stored at 4° C. for later use in the experiment. Aliquots of the starter bacterial culture were then incubated with either (1) dH2O, (2) alizarin red s, (3) 6 nm TiO2 nanoparticles, or (4) alizarin red s-coated-6 nm TiO2 nanoconjugates for 10 minutes. All samples were then exposed to a 150 W halogen bulb for 10 minutes and plated on kanamycin-containing LB agar plates, incubated overnight at 37° C., and photographed with a digital camera.

emerin = assay: Emerin integrity and distribution in HeLa cells, fluorescence confocal microscopy; type: cell-based; details: regardless of light treatment
Procedure: (§1) HeLa cells were grown on #1 glass coverslips to approximately 20% confluence and then exposed to ARS-coated TiO2 nanoparticles or appropriate controls overnight. Respective samples were either exposed to no light or light with a Fiber-Lite MI-150 High Intensity Fiber Optic 150 W Halogen Light Illuminator for 10 min. All samples were fixed in 3.6% formaldehyde (Fisher Scientific, Waltham, Mass., USA) and permeabilized in 0.2% Triton-100× (Fisher Scientific) for 10 min. Cells were then stained with either a mouse monoclonal to emerin primary antibody (Abcam, Cambridge, Mass., USA) followed by an Alexa488 goat anti-mouse IgG (H+L) secondary antibody (Invitrogen, Grand Island, N.Y., USA) or a chicken polyclonal to lamin B1 primary antibody (Abcam) followed by an Alexa488 goat anti-chicken IgG (H+L) secondary antibody (Invitrogen). All samples were then stained with Hoechst 33342 (Sigma) and coverslips were mounted in P-phenylenediamine containing mounting media. Samples were imaged on an Olympus IX81-UCB Spinning Disc Confocal Microscope (Olympus, Center Valley, Pa., USA) using a 100 W mercury burner (Ushio, Tokyo, Japan), Brightline filters for DAPI, FITC, and TEXAS RED (Semrock, Rochester, N.Y., USA), and an ORCA-ER-1394 high-resolution digital camera (Hamamatsu, Japan). All images are presented as […] optical slice fluorescence overlays in either two or three dimensions. […]

lamin B1 = assay: Lamin B1 integrity and distribution in HeLa cells, fluorescence confocal microscopy; type: cell-based; details: light or no light
Procedure: as §1

| Compound | cellular responses (HeLa cells) | nicking of plasmid DNA (plasmid DNA) | bacterial growth (colonies on plate) [1] | emerin integrity and distribution (emerin) | lamin B1 integrity and distribution (lamin B1) |
| --- | --- | --- | --- | --- | --- |
| alizarin blue black b [ABBB] | no detectable cellular responses |  |  |  |  |
| O=C1c2ccccc2C(=O)c2c1cc(S(=O)(=O)[O-])c(O)c2O.[Na+] [ARS, alizarin red s] |  | slight expected increase in nicked plasmid DNA | bacterial colonies are witnessed | normal emerin integrity and distribution | normal lamin B1 integrity and distribution |
